In article PMC5267425, “Identification of small molecule modulators of HIV-1 Tat and Rev protein accumulation” (Retrovirology, 2017):

Tested on: cellular gene expression in HeLa rtTA HIV∆Mls cells

SMILES: Cc1cc(NCc2cccnc2)n2ncc(-c3ccc(Cl)cc3)c2n1 [Compound 791, 3-(4-chlorophenyl)-5-methyl-N-(3-pyridinylmethyl)pyrazolo[1,5-a]pyrimidin-7-amine]
- DCAF6 expression fold change: 0.581
- DCAF17 Mean fold change: 1.433
- DCI expression fold change: 1.321
- DCLRE1A expression fold change: 1.408
- DCXR expression fold change: 1.050
- DDB2 expression fold change: 1.399
- DDR1 expression fold change: 0.690
- DDX10 expression fold change: 1.177
- DDX31 Mean fold change: 1.434
- DDX50 expression fold change: 1.253
- DENND4B expression fold change: 1.243
- DET1 expression fold change: 1.366
- DGCR2 expression fold change: 0.881
- DGKQ expression fold change: 1.343
- DHX35 expression fold change: 1.203
- DLG4 expression fold change: 1.263
- DMAP1 expression fold change: 0.891
- DNAH14 Mean fold change: 1.678
- DNAH17 Mean fold change: 1.839
- DNAJA3 Mean fold change: 1.796
- DNAJB14 expression fold change: 1.264
- DNASE2 expression fold change: 1.378
- DNMT3L expression fold change: 0.498
- DOCK1 expression fold change: 0.758
- DOCK8 expression fold change: 0.595
- DPH5 Mean fold change: 1.479
- DPM2 expression fold change: 1.136
- DPYSL2 Mean fold change: 1.729
- DSE expression fold change: 0.858
- DUS4L Mean fold change: 1.822
- DUSP1 expression fold change: 0.730
- DUSP8 expression fold change: 0.576
- DYM expression fold change: 1.260
- DYNC1I2 expression fold change: 0.857
- DYNLT1 expression fold change: 1.171
- DYRK2 expression fold change: 1.206
- EARS2 expression fold change: 1.134
- ECT2 expression fold change: 0.716
- EDA2R Mean fold change: 1.924
- EDEM1 expression fold change: 1.273
- EFCAB2 expression fold change: 1.159
- EIF1 Mean fold change: 1.516
- EIF2S2 Mean fold change: 1.734
- EIF2S3 expression fold change: 1.243
- EIF4EBP1 Mean fold change: 2.239
- ELMO2 expression fold change: 1.211
- ELP3 expression fold change: 1.135
- EMP2 expression fold change: 0.740
- ENOPH1 Mean fold change: 1.427
- EPB41L2 expression fold change: 0.862
- EPB41L4A expression fold change: 0.788
- EPB41 Mean fold change: 1.417
- EPM2AIP1 expression fold change: 1.093
- EPRS expression fold change: 1.271
- ERCC2 expression fold change: 0.790
- ERGIC1 expression fold change: 1.185
- ERICH1 expression fold change: 0.941
- ERMAP Mean fold change: 1.499
- ERRFI1 Mean fold change: 1.452
- ESAM expression fold change: 0.673
- ESCO1 expression fold change: 1.256
- ESF1 expression fold change: 1.072
- ESRRA expression fold change: 1.275
- ESYT2 expression fold change: 0.824
- ETV4 Mean fold change: 4.291
- ETV6 expression fold change: 1.253
- F2R expression fold change: 0.551
- FAIM3 expression fold change: 1.351
- FAM13B expression fold change: 0.771
- FAM27E2 Mean fold change: 2.360
- FAM83D expression fold change: 0.622
- FAM83G expression fold change: 1.328
- FAM86A Mean fold change: 1.567
- FAM86B1 Mean fold change: 2.493
- FAM86B2 Mean fold change: 2.843
- FAM86C Mean fold change: 1.599
- FAM102A expression fold change: 1.402
- FAM107B expression fold change: 1.234
- FAM114A1 expression fold change: 0.853
- FAM119B expression fold change: 1.218
- FAM127A expression fold change: 0.756
- FAM133B expression fold change: 1.056
- FAM176B expression fold change: 1.310
- FAM179B expression fold change: 1.253
- FAM192A expression fold change: 1.096
- FAM195B expression fold change: 0.859
- FAM199X expression fold change: 1.145
- FAR1 expression fold change: 1.245
- FARP1 expression fold change: 0.824
- FASTKD2 expression fold change: 1.173
- FBXL2 expression fold change: 0.756
- FBXO22 expression fold change: 1.399
- FBXO28 expression fold change: 1.101
- FBXO45 Mean fold change: 1.434
- FBXW4 expression fold change: 1.381
- FBXW11 expression fold change: 1.080
- FDFT1 expression fold change: 0.649
- FECH expression fold change: 0.957
- FEM1C expression fold change: 1.387
- FEZ2 expression fold change: 1.355
- FGFR3 expression fold change: 0.612
- FLCN expression fold change: 1.383
- FLII expression fold change: 0.919
- FLYWCH1 expression fold change: 1.367
- FOSL2 expression fold change: 1.375
- FOXF1 expression fold change: 1.318
- FOXJ2 expression fold change: 1.277
- FOXJ3 expression fold change: 1.187
- FOXN2 expression fold change: 1.082
- FRAT1 expression fold change: 0.900
- FSTL1 expression fold change: 0.717
- FUBP1 expression fold change: 0.781
- FXYD5 expression fold change: 1.215
- FZR1 expression fold change: 0.784
- GABARAPL2 expression fold change: 0.887
- GADD45A Mean fold change: 2.491
- GALNT2 expression fold change: 0.621
- GATA5 expression fold change: 1.360
- GATSL1 expression fold change: 0.637
- GBA2 expression fold change: 1.203
- GCC1 Mean fold change: 1.971
- GDF15 Mean fold change: 7.775
- GGA3 expression fold change: 1.172
- GJD3 expression fold change: 1.295
- GLCCI1 expression fold change: 0.781
- GLI2 expression fold change: 0.589
- GNA13 expression fold change: 1.223
- GNG10 expression fold change: 0.817
- GNL1 expression fold change: 1.145
- GOLGA5 expression fold change: 1.153
- GOLGA9P Mean fold change: 1.884
- GORAB expression fold change: 1.233
- GORASP1 expression fold change: 0.859
- GOSR1 expression fold change: 1.352
- GPC5 expression fold change: 1.250
- GPCPD1 Mean fold change: 2.287
- GPD1L expression fold change: 1.252
- GPR176 expression fold change: 0.771
- GPT2 Mean fold change: 2.731
- GRAMD1C expression fold change: 1.186
- GRB10 Mean fold change: 1.714
- GRINL1A Mean fold change: 1.542
- GRPEL2 Mean fold change: 1.903
- GTF2H3 expression fold change: 1.322
- GTF3C1 expression fold change: 0.813
- H3F3A expression fold change: 0.746
- HACL1 expression fold change: 0.803
- HADHA Mean fold change: 1.441
- HADHB Mean fold change: 1.600
- HAUS3 expression fold change: 1.330
- HAUS4 expression fold change: 1.250
- HAUS6 Mean fold change: 1.910
- HAX1 Mean fold change: 1.624
- HDAC1 expression fold change: 0.825
- HDHD2 expression fold change: 1.223
- HEBP1 expression fold change: 1.199
- HECTD1 expression fold change: 1.231
- HEG1 expression fold change: 0.638
- HIF1A expression fold change: 1.219
- HINT3 expression fold change: 1.199
- HIPK1 expression fold change: 1.092
- HIST1H3B expression fold change: 0.670
- HJURP expression fold change: 0.874
- HMGB3 expression fold change: 0.753
- HMGN3 expression fold change: 0.687
- HNRNPH2 expression fold change: 0.704
- HPS3 expression fold change: 1.235
- HRSP12 expression fold change: 1.297
- HSD17B1 expression fold change: 1.238
- HSPA9 Mean fold change: 2.175
- HSPB6 Mean fold change: 2.845
- HSPB8 expression fold change: 0.812
- IBTK expression fold change: 1.153
- ICAM1 Mean fold change: 1.829
- ICK expression fold change: 0.776
- ID3 expression fold change: 0.580
- IDH2 expression fold change: 0.637
- IDI1 expression fold change: 0.495
- IFNGR1 expression fold change: 1.224
- IFRD1 Mean fold change: 2.095
- IKBIP expression fold change: 0.658
- IMMT expression fold change: 1.075
- IMPA2 Mean fold change: 1.561
- INCENP expression fold change: 0.617
- INO80C expression fold change: 0.723
- INPP1 expression fold change: 1.347
- IPO13 expression fold change: 1.247
- IQCB1 expression fold change: 1.350
- ISCU Mean fold change: 1.477
- ITGA5 expression fold change: 1.145
- ITPKC expression fold change: 1.186
- IVNS1ABP expression fold change: 1.200
- JTB expression fold change: 1.203
- JUB expression fold change: 0.585
- KANK2 expression fold change: 0.798
- KCNJ2 Mean fold change: 1.873
- KCTD1 expression fold change: 1.252
- KCTD13 expression fold change: 1.373
- KCTD15 Mean fold change: 1.965
- KCTD20 expression fold change: 1.124
- KHDRBS1 expression fold change: 0.750
- KHSRP expression fold change: 0.864
- KIAA0232 expression fold change: 1.232
- KIAA0562 expression fold change: 1.119
- KIAA0649 expression fold change: 1.279
- KIAA0753 expression fold change: 1.283
- KIAA0895 expression fold change: 1.129
- KIAA1430 expression fold change: 1.140
- KIAA1826 expression fold change: 1.191
- KIAA2013 expression fold change: 0.927
- KIF3B expression fold change: 0.839
- KIF5C expression fold change: 0.782
- KIF11 expression fold change: 0.660
- KIF18B expression fold change: 0.771
- KIF20B expression fold change: 0.622
- KIFC1 expression fold change: 0.753
- KITLG expression fold change: 0.707
- KLF9 expression fold change: 0.665
- KLF11 Mean fold change: 1.487
- KLHDC3 expression fold change: 0.728
- KLHL35 Mean fold change: 1.651
- KPNA2 expression fold change: 0.620
- KRR1 expression fold change: 1.251
- LACE1 Mean fold change: 1.553
- LAPTM4B expression fold change: 0.781
- LARP6 Mean fold change: 3.094
- LARS expression fold change: 1.394
- LASS5 expression fold change: 0.895
- LGALS9 Mean fold change: 1.949
- LGTN expression fold change: 1.255
- LHPP Mean fold change: 1.532
- LIG3 expression fold change: 1.068
- LIN7B expression fold change: 1.185
- LMO7 expression fold change: 0.663
- LONP1 Mean fold change: 2.312
- LRP5L expression fold change: 1.303
- LRPPRC expression fold change: 1.312
- LRRC8D Mean fold change: 1.472
- LRRC16A expression fold change: 0.608
- LRRC37A3 Mean fold change: 1.746
- LRRC37B Mean fold change: 1.443
- LRSAM1 expression fold change: 1.153
- LYRM2 expression fold change: 1.176
- LYSMD1 expression fold change: 1.216
- LZTR1 expression fold change: 0.877
- MAGT1 expression fold change: 0.903
- MAK16 Mean fold change: 1.459
- MAML2 expression fold change: 0.717
- MANF expression fold change: 0.731
- MAP1B Mean fold change: 3.550
- MAP3K12 expression fold change: 1.348
- MAP3K14 expression fold change: 0.532
- MAP4K4 expression fold change: 0.822
